Assay results reported in patent US5082772A, “Process for preparing deacetylcephalosporin C” (priority 1988, dated 1992).
Several values for one entry are separate records, joined by “and”; a condition that tells them apart may be missing. Equal values may be shown once. Read-outs that look alike come from different tables or passages of the source. Blank lines part the entries; values can stand above or below the compound they belong to.

Key:
Type in all cases: biochemical
DAOC synthase [1] = target: T1, DAOC synthase (Streptomyces clavuligerus, UniProt P18548); assay: DAOC synthase activity assay: effect of metal chelators, sulfhydryl reagents and other inhibitors
T1 sequence (P18548 whole entry): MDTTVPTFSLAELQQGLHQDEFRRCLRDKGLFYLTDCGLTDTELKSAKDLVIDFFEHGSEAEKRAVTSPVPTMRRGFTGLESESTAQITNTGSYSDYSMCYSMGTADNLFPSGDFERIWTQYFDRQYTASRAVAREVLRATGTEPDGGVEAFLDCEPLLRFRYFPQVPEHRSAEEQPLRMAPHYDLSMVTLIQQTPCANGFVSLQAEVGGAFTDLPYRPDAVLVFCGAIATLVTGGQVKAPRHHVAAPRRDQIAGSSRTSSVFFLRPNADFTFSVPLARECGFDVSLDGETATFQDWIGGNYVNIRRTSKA
Procedure: ^1 Enzymatic reactions were conducted in the presence of […]
FeSO4 and 0.1 mM DTT. The enzyme was incubated with the indicated
inhibitor for 1 min prior to the initiation of the reaction with
(§1) The enzymatic reaction was initiated by addition of penicillin N and was conducted for 15 min at 36° C. The synthase activity was determined by monitoring DAOC formation at 260 nm with HPLC as described by Dotzlaf, J. E., and Yeh, W. K (1987), J. Bacteriol 169, 1611-1618.

purified synthase [2] = target: T2, purified synthase (Streptomyces clavuligerus, UniProt P18548); assay: Hydroxylase activity (conversion to DAC)
T2 sequence (P18548 whole entry): as above

DAOC synthase [3] = target: T1, DAOC synthase; assay: Cofactor and metal ion requirement and stimulation of DAOC synthase activity
Procedure: as §1

[4] = target: T3, recombinantly produced DAOC synthase (Streptomyces clavuligerus, UniProt P18548); assay: Kinetics of recombinant enzyme (Lineweaver-Burk); conditions: pH 7.0, 50 mM HEPES buffer, 36° C.
T3 construct: made in house; host or cells: Escherichia coli K12 JM109 (plasmid pOW382)
T3 sequence (P18548 whole entry): as above
Procedure: The kinetics of the native enzyme and recombinant enzyme were determined under the optimal reaction conditions for the enzyme, i.e., at pH 7.0 in 50 mM HEPES buffer at 36° C.

native synthase = target: T4, native synthase (Streptomyces clavuligerus, UniProt P18548); assay: Kinetics of native synthase, partially purified (Mono Q eluate); conditions: native partially purified enzyme; Tris-HCl buffer, 36° C.
T4 construct: native synthase, evaluated with the partially purified enzyme; endogenous in cells; host or cells: Streptomyces clavuligerus cells, crude extract, three-step purification (Mono Q eluate)
T4 sequence (P18548 whole entry): as above

DAOC synthase [5] = target: T1, DAOC synthase; assay: Substrate specificity of DAOC synthase (HPLC detection); conditions: optimum conditions for converting penicillin N to DAOC; HPLC detectable
purified synthase [6] = target: T2, purified synthase; assay: Stoichiometric analysis of conversion of penicillin N to DAOC; conditions: over 60 min of the reaction
Procedure: In the conversion of penicillin N to DAOC by the purified synthase provided herein, the molar ratio for DAOC formation/penicillin N disappearance over 60 min of the reaction remained in the range of 0.90-0.98 as shown in FIG. 5. The conversion of penicillin N to DAOC was 94% complete under the reaction conditions.

[7] = additive 0.1 mM, 0.06 mN FeSO4, 0.1 mM DTT, 1 min incubation with inhibitor before penicillin N
[8] = additive 1.0 mM, 0.06 mN FeSO4, 0.1 mM DTT, 1 min incubation with inhibitor before penicillin N
[9] = metal ions: order Zn2+ > Co2+ > Ni2+

SMILES: O=C(O)c1cc[c]([Hg+])cc1.[OH-] [p-HMB, p-hydroxymercuribenzoate]
Relative Activity (%) (DAOC synthase [1]; [7]): 0% | Relative Activity (%) (DAOC synthase [1]; [8]): 0% | inhibition of DAOC synthase activity (in words) (DAOC synthase [1]; [9]): highly susceptible to inhibition

SMILES: CC1=C(C(=O)O)N2C(=O)[C@@H](NC(=O)CCC[C@@H](N)C(=O)O)[C@H]2SC1 [DAOC, deacetoxycephalosporin C]
conversion to DAC by the purified synthase (purified synthase [2]): lacks the hydroxylase activity for converting DAOC to DAC

SMILES: O=O [oxygen]
requirement for expression of catalytic activity (DAOC synthase [3]): requires

SMILES: O=C(O)CN(CCN(CC(=O)O)CC(=O)O)CC(=O)O [EDTA, ethylenediamine tetraacetic acid]
inhibition of DAOC synthase activity (in words) (DAOC synthase [1]): highly sensitive to inhibition

SMILES: [Fe+2] [ferrous ion]
requirement for expression of catalytic activity (DAOC synthase [3]): requires | Ka [4]: 8 µM | Ka (native synthase): 4 µM

SMILES: O=C(O)CI [Iodoacetic acid, iodoacetic acid]
Relative Activity (%) (DAOC synthase [1]): 100% and 65% | inhibition of DAOC synthase activity (in words) (DAOC synthase [1]): slightly inhibited

replacement of ferrous ion for expression of enzyme activity (DAOC synthase [3]): could not be replaced
SMILES: [Cu+] [cuprous]

inhibition of DAOC synthase activity (in words) (DAOC synthase [1]; [9]): inhibited | replacement of ferrous ion for expression of enzyme activity (DAOC synthase [3]): could not be replaced
SMILES: [Co+2] [cobaltous]

synthase activity with the compound as substrate (DAOC synthase [5]): No synthase activity was observed
SMILES: CC1(C)S[C@@H]2[C@H](NC(=O)[C@H](N)c3ccccc3)C(=O)N2[C@H]1C(=O)O [ampicillin]

Relative Activity (%) (DAOC synthase [1]; additive 0.02 mM, 0.06 mN FeSO4, 0.1 mM DTT, 1 min incubation with inhibitor before penicillin N): 63% | Relative Activity (%) (DAOC synthase [1]; additive 0.2 mM, 0.06 mN FeSO4, 0.1 mM DTT, 1 min incubation with inhibitor before penicillin N): 0% | inhibition of DAOC synthase activity (in words) (DAOC synthase [1]; [9]): highly sensitive to inhibition
SMILES: c1cnc2c(c1)ccc1cccnc12 [o-Phenanthroline, 1,10-phenanthroline]

replacement of ferrous ion for expression of enzyme activity (DAOC synthase [3]): could not be replaced
SMILES: [Na+] [sodium]

replacement of ferrous ion for expression of enzyme activity (DAOC synthase [3]): could not be replaced
SMILES: [Mn+2] [manganous]

SMILES: CC1(C)S[C@@H]2[C@H](NC(=O)Cc3ccccc3)C(=O)N2[C@H]1C(=O)O [penicillin G]
synthase activity with the compound as substrate (DAOC synthase [5]): No synthase activity was observed

SMILES: Nc1ncnc2c1ncn2[C@@H]1O[C@H](COP(=O)(O)OP(=O)(O)OP(=O)(O)O)[C@@H](O)[C@H]1O [ATP, adenosine triphosphate]
stimulation of DAOC synthase activity (DAOC synthase [3]): No detectable stimulation

SMILES: [Ca] [calcium]
replacement of ferrous ion for expression of enzyme activity (DAOC synthase [3]): could not be replaced

SMILES: CC1(C)S[C@@H]2[C@H](N)C(=O)N2[C@H]1C(=O)O [6-aminopenicillanic acid]
synthase activity with the compound as substrate (DAOC synthase [5]): No synthase activity was observed

SMILES: [Ni+2] [nickel]
inhibition of DAOC synthase activity (in words) (DAOC synthase [1]; [9]): inhibited | replacement of ferrous ion for expression of enzyme activity (DAOC synthase [3]): could not be replaced

replacement of ferrous ion for expression of enzyme activity (DAOC synthase [3]): could not be replaced
SMILES: [Mg] [magnesium]

SMILES: CC1(C)S[C@@H]2[C@H](NC(=O)CCC[C@@H](N)C(=O)O)C(=O)N2[C@H]1C(=O)O [penicillin N]
molar ratio for DAOC formation/penicillin N disappearance (purified synthase [6]): 0.90-0.98

replacement of ferrous ion for expression of enzyme activity (DAOC synthase [3]; in the presence of DTT and ascorbate, enzyme slightly less active): can substitute for ferrous ion
SMILES: [Fe+3] [Ferric ion]

SMILES: CCN1C(=O)C=CC1=O [NEM, N-ethylmaleimide]
Relative Activity (%) (DAOC synthase [1]; [7]): 55% | Relative Activity (%) (DAOC synthase [1]; [8]): 0% | inhibition of DAOC synthase activity (in words) (DAOC synthase [1]; [9]): highly susceptible to inhibition

inhibition of DAOC synthase activity (in words) (DAOC synthase [1]; [9]): inhibited | replacement of ferrous ion for expression of enzyme activity (DAOC synthase [3]): could not be replaced
SMILES: [Zn+2] [zinc]

replacement of ferrous ion for expression of enzyme activity (DAOC synthase [3]): could not be replaced
SMILES: [K+] [potassium]

SMILES: O=C(O)c1cc(SSc2ccc([N+](=O)[O-])c(C(=O)O)c2)ccc1[N+](=O)[O-] [DTNB, 5,5'-dithiobis-2-nitrobenzoic acid]
inactivation of the enzyme (DAOC synthase [1]; 0.2 mM DTNB, 0.5 min, 4° C.): complete inactivation | Relative Activity (%) (DAOC synthase [1]; [7]): 70% | Relative Activity (%) (DAOC synthase [1]; [8]): 0% | inhibition of DAOC synthase activity (in words) (DAOC synthase [1]; [9]): highly susceptible to inhibition

restoration of synthase activity after DTNB inactivation (DAOC synthase [1]; 2 mM DTT added, 30 min): fully restored | stimulation of DAOC synthase activity (DAOC synthase [3]): stimulated
SMILES: O[C@H](CS)[C@H](O)CS (racemic) [DTT, dithiothreitol]

SMILES: CC1(C)S[C@@H]2[C@H](NC(=O)CCC[C@H](N)C(=O)O)C(=O)N2[C@H]1C(=O)O [isopenicillin N]
synthase activity with the compound as substrate (DAOC synthase [5]): No synthase activity was observed

SMILES: C=C1CS[C@@H]2[C@H](NC(=O)CCCC(N)C(=O)O)C(=O)N2C1C(=O)O (stereo partly drawn) [3-exomethylenecephalosporin C, 7β-(α-aminoadipamido)-3-exomethylenecepham-4-carboxylic acid]
inhibition of DAOC synthase activity (in words) (DAOC synthase [1]; [9]): strong inhibitor | conversion to DAC by the purified synthase (purified synthase [2]): possesses the ability to convert 3-exomethylenecephalosporin C to DAC

SMILES: CC1(C)S[C@@H]2[C@H](NC(=O)COc3ccccc3)C(=O)N2[C@H]1C(=O)O [penicillin V]
synthase activity with the compound as substrate (DAOC synthase [5]): No synthase activity was observed
